Reference: patent publication US7741327B2 (Hoffmann-La Roche Inc., priority 2008, dated 2010)
Each block holds one compound with its values, some of them ahead of it.

Target: T1, Recombinant human liver GK1 (GST-GK) (Homo sapiens, UniProt P35557)
T1 construct: made in house; host or cells: E. coli
T1 sequence (P35557 1-466 isoform P35557-2): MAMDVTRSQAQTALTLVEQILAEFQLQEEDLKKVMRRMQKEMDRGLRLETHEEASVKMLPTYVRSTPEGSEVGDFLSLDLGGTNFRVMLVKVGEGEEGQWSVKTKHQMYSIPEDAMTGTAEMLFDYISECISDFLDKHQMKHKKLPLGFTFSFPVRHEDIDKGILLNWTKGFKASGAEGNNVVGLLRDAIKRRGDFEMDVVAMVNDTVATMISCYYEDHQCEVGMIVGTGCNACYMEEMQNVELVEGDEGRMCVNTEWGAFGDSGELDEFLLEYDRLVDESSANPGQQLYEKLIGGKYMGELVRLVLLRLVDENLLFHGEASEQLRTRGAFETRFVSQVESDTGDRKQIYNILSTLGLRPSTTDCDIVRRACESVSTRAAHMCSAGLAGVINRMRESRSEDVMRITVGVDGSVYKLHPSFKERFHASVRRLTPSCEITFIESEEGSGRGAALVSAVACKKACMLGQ
Assay: In vitro glucokinase activity (G6PDH-coupled NADH assay)
Assay type: biochemical
Details: 30° C., 5 mM D-glucose, 10% DMSO
Method in brief: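 GST-tagged human liver GK1 from E. coli, assayed at 30° C in 25 mM Hepes pH 7.1 with 5 mM D-glucose, 1 mM ATP, 1.8 mM NAD and G6PDH coupling, 10% DMSO final; reaction started with enzyme after 10 min preincubation. NADH formation followed at OD340; SC1.5 is activator concentration giving 50% increase over DMSO control rate.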

SC1.5 (concentration of activator that produced a 50% increase in the activity of GK): 0.138 µM
SMILES: CC(C)C[C@@H](C(=O)Nc1ccn(C[C@H](O)CO)n1)N1CC(Oc2ccccc2Cl)=CC1=O [Example 175, (S)-2-[4-(2-Chloro-phenoxy)-2-oxo-2,5-dihydro-pyrrol-1-yl]-4-methyl-pentanoic acid [1-((S)-2,3-dihyrxy-propyl)-1H-pyrazol-3-yl]-amide]

SC1.5 (concentration of activator that produced a 50% increase in the activity of GK): 0.05 µM
SMILES: O=C(Nc1ccn(C[C@@H](O)CO)n1)[C@H](CC1CCC1)N1CC(Oc2ccccc2Cl)=CC1=O [Example 176, (S)-2-[4-(2-chloro-phenoxy)-2-oxo-2,5-dihydro-pyrrol-1-yl]-3-cyclobutyl-N-[1-((R)-2,3-dihydroxy-propyl)-1H-pyrazol-3-yl]-propionamide]

SC1.5 (concentration of activator that produced a 50% increase in the activity of GK): 4.725 µM
SMILES: O=C(Nc1ccn(C[C@@H](O)CO)n1)[C@@H](CC1CCC1)N1CC(Oc2ccccc2Cl)=CC1=O [Example 177, (R)-2-[4-(2-chloro-phenoxy)-2-oxo-2,5-dihydro-pyrrol-1-yl]-3-cyclobutyl-N-[1-((R)-2,3-dihydroxy-propyl)-1H-pyrazol-3-yl]-propionamide]

SC1.5 (concentration of activator that produced a 50% increase in the activity of GK): 1.064 µM
SMILES: O=C(Nc1ccn(C[C@@H](O)CO)n1)[C@H](Cc1ccccc1)N1CC(Oc2ccccc2Cl)=CC1=O [Example 181, (S)-2-[4-(2-chloro-phenoxy)-2-oxo-2,5-dihydro-pyrrol-1-yl]-N-[1-((R)-2,3-dihydroxy-propyl)-1H-pyrazol-3-yl]-3-phenyl-propionamide]

SC1.5 (concentration of activator that produced a 50% increase in the activity of GK): 0.496 µM
SMILES: CC1(C)OC[C@@H](Cn2ccc(NC(=O)[C@H](Cc3ccccc3F)N3CC(Oc4ccccc4Cl)=CC3=O)n2)O1 [Example 182, (S)-2-[4-(2-chloro-phenoxy)-2-oxo-2,5-dihydro-pyrrol-1-yl]-N-[1-((R)-2,2-dimethyl-[1,3]dioxolan-4-yl-methyl)-1H-pyrazol-3-yl]-3-(2-fluoro-phenyl)-propionamide]

SC1.5 (concentration of activator that produced a 50% increase in the activity of GK): 0.325 µM
SMILES: O=C(Nc1ccn(C[C@@H](O)CO)n1)[C@H](Cc1ccccc1F)N1CC(Oc2ccccc2Cl)=CC1=O [Example 183, (S)-2-[4-(2-chloro-phenoxy)-2-oxo-2,5-dihydro-pyrrol-1-yl]-N-[1-((R)-2,3-dihydroxy-propyl)-1H-pyrazol-3-yl]-3-(2-fluorophenyl)-propionamide]

SC1.5 (concentration of activator that produced a 50% increase in the activity of GK): 0.371 µM
SMILES: O=C(Nc1ccn(C[C@@H](O)CO)n1)[C@H](Cc1c(F)cccc1F)N1CC(Oc2ccccc2Cl)=CC1=O [Example 185, (S)-2-[4-(2-chloro-phenoxy)-2-oxo-2,5-dihydro-pyrrol-1-yl]-N-[1-((R)-2,3-dihydroxy-propyl)-1H-pyrazol-3-yl]-3-(2,6-difluorophenyl)-propionamide]

SC1.5 (concentration of activator that produced a 50% increase in the activity of GK): 0.771 µM
SMILES: O=C(Nc1ccn(C[C@@H](O)CO)n1)[C@H](Cc1ccc(F)cc1)N1CC(Oc2ccccc2Cl)=CC1=O [Example 187, (S)-2-[4-(2-chloro-phenoxy)-2-oxo-2,5-dihydro-pyrrol-1-yl]-N-[1-((R)-2,3-dihydroxy-propyl)-1H-pyrazol-3-yl]-3-(4-fluorophenyl)-propionamide]

SC1.5 (concentration of activator that produced a 50% increase in the activity of GK): 0.894 µM
SMILES: O=C(Nc1ccn(C[C@@H](O)CO)n1)[C@H](Cc1ccccc1Cl)N1CC(Oc2ccccc2Cl)=CC1=O [Example 189, (S)-2-[4-(2-chloro-phenoxy)-2-oxo-2,5-dihydro-pyrrol-1-yl]-N-[1-((R)-2,3-dihydroxy-propyl)-1H-pyrazol-3-yl]-3-(2-chlorophenyl)-propionamide]

More lines, now with the values behind:

SMILES: CC(C)C[C@@H](C(=O)Nc1ccn(C[C@@H]2CNC(=O)O2)n1)N1CC(Oc2ccccc2Cl)=CC1=O [Example 172, (S)-2-[4-(2-chloro-phenoxy)-2-oxo-2,5-dihydro-pyrrol-1-yl]-4-methyl-pentanoic acid [1-((S)-2-oxo-oxazolidin-5-ylmethyl)-1H-pyrazol-3-yl]-amide]
SC1.5 (concentration of activator that produced a 50% increase in the activity of GK): 0.628 µM

SMILES: CC(C)C[C@@H](C(=O)Nc1ccn(C[C@H]2COC(C)(C)O2)n1)N1CC(Oc2ccccc2Cl)=CC1=O [Example 174, (S)-2-[4-(2-Chloro-phenoxy)-2-oxo-2,5-dihydro-pyrrol-1-yl]-4-methyl-pentanoic acid [1-((S)-2,2-dimethyl-[1,3]dioxolan-4-yl-methyl)-1H-pyrazol-3-yl]-amide]
SC1.5 (concentration of activator that produced a 50% increase in the activity of GK): 0.133 µM

SMILES: COc1ccccc1OC1=CC(=O)N([C@@H](CC2CCCO2)C(=O)Nc2ccn(CC(C)(C)O)n2)C1 (stereo partly drawn) [Example 178, (S)-N-[1-(2-hydroxy-2-methyl-propyl)-1H-pyrazol-3-yl]-2-[4-(2-methoxy-phenoxy)-2-oxo-2,5-dihydro-pyrrol-1-yl]-3-(tetrahydro-furan-2-yl)-propionamide]
SC1.5 (concentration of activator that produced a 50% increase in the activity of GK): 2.231 µM

SMILES: COc1ccccc1OC1=CC(=O)N([C@@H](CC2CCCO2)C(=O)Nc2ccn(CC(C)(C)O)n2)C1 (stereo partly drawn) [Example 179, (S)-N-[1-(2-hydroxy-2-methyl-propyl)-1H-pyrazol-3-yl]-2-[4-(2-methoxy-phenoxy)-2-oxo-2,5-dihydro-pyrrol-1-yl]-3-(tetrahydro-furan-2-yl)-propionamide]
SC1.5 (concentration of activator that produced a 50% increase in the activity of GK): 0.295 µM

SMILES: CC(C)C[C@@H](C(=O)Nc1ccn(C[C@@H](N)CO)n1)N1CC(Oc2ccccc2Cl)=CC1=O [Example 180, (S)-2-[4-(2-chloro-phenoxy)-2-oxo-2,5-dihydro-pyrrol-1-yl]-4-methyl-pentanoic acid [1-((R)-2-amino-3-hydroxy-propyl)-1H-pyrazol-3-yl]-amide]
SC1.5 (concentration of activator that produced a 50% increase in the activity of GK): 6.393 µM

SMILES: CC1(C)OC[C@@H](Cn2ccc(NC(=O)[C@H](Cc3c(F)cccc3F)N3CC(Oc4ccccc4Cl)=CC3=O)n2)O1 [Example 184, (S)-2-[4-(2-chloro-phenoxy)-2-oxo-2,5-dihydro-pyrrol-1-yl]-N-[1-((R)-2,2-dimethyl-[1,3]dioxolan-4-yl-methyl)-1H-pyrazol-3-yl]-3-(2,6-difluoro-phenyl)-propionamide]
SC1.5 (concentration of activator that produced a 50% increase in the activity of GK): 0.617 µM

SMILES: CC1(C)OC[C@@H](Cn2ccc(NC(=O)[C@H](Cc3ccc(F)cc3)N3CC(Oc4ccccc4Cl)=CC3=O)n2)O1 [Example 186, (S)-2-[4-(2-chloro-phenoxy)-2-oxo-2,5-dihydro-pyrrol-1-yl]-N-[1-((R)-2,2-dimethyl-[1,3]dioxolan-4-yl-methyl)-1H-pyrazol-3-yl]-3-(4-fluoro-phenyl)-propionamide]
SC1.5 (concentration of activator that produced a 50% increase in the activity of GK): 1.538 µM

SMILES: CC1(C)OC[C@@H](Cn2ccc(NC(=O)[C@H](Cc3ccccc3Cl)N3CC(Oc4ccccc4Cl)=CC3=O)n2)O1 [Example 188, (S)-2-[4-(2-chloro-phenoxy)-2-oxo-2,5-dihydro-pyrrol-1-yl]-N-[1-((R)-2,2-dimethyl-[1,3]dioxolan-4-yl-methyl)-1H-pyrazol-3-yl]-3-(2-chlorophenyl)-propionamide]
SC1.5 (concentration of activator that produced a 50% increase in the activity of GK): 1.629 µM

SMILES: CC(C)C[C@@H](C(=O)Nc1ncc(Cl)s1)N1CC(Oc2ccccc2Cl)=CC1=O [Example 190, (S)-2-[4-(2-chloro-phenoxy)-2-oxo-2,5-dihydro-pyrrol-1-yl]-4-methyl-pentanoic acid (5-chloro-thiazol-2-yl)-amide]
SC1.5 (concentration of activator that produced a 50% increase in the activity of GK): 0.63 µM

SMILES: CC(C)C[C@@H](C(=O)Nc1ccn(C[C@@H]2C[C@H](CC(=O)OC(C)(C)C)OC(C)(C)O2)n1)N1CC(Oc2ccccc2Cl)=CC1=O [Example 192]
SC1.5 (concentration of activator that produced a 50% increase in the activity of GK): 0.412 µM

SMILES: CC(C)C[C@@H](C(=O)Nc1ccn(C[C@@H](O)C[C@@H](O)CC(=O)OC(C)(C)C)n1)N1CC(Oc2ccccc2Cl)=CC1=O [Example 193, (3R,5S)-6-(3-{(S)-2-[4-(2-chloro-phenoxy)-2-oxo-2,5-dihydro-pyrrol-1-yl]-4-methyl-pentanoylamino}-pyrazol-1-yl)-3,5-dihydroxy-hexanoic acid t-butyl ester]
SC1.5 (concentration of activator that produced a 50% increase in the activity of GK): 0.307 µM

SMILES: CC(C)C[C@@H](C(=O)Nc1ccn(C[C@@H](O)C[C@@H](O)CC(=O)O)n1)N1CC(Oc2ccccc2Cl)=CC1=O [Example 194, (3R,5S)-6-(3-{(S)-2-[4-(2-chloro-phenoxy)-2-oxo-2,5-dihydro-pyrrol-1-yl]-4-methylpentanoylamino}-pyrazol-1-yl)-3,5-dihydroxy-hexanoic acid]
SC1.5 (concentration of activator that produced a 50% increase in the activity of GK): 0.695 µM

SMILES: CC(C)Oc1ccccc1OC1=CC(=O)N([C@@H](CC2CCCCC2)C(=O)Nc2ccn(CC(C)(C)O)n2)C1 [Example 195, (S)-3-cyclohexyl-N-[1-(2-hydroxy-2-methyl-propyl)-1H-pyrazol-3-yl]-2-[4-(2-isopropoxy-phenoxy)-2-oxo-2,5-dihydro-pyrrol-1yl]-propionamide]
SC1.5 (concentration of activator that produced a 50% increase in the activity of GK): 0.681 µM
